How the values were obtained:
[1] = human, serum, 4383 h
[2] = human
[3] = Presence of at least one case with successful reintroduction. [column 'REINT' in source]; conditions: human
[4] = human; remark: listed apart in the source
[5] = Comments (NB not yet translated). [column 'COMMENTAIRES' in source]; conditions: human
[6] = Highest frequency of moderate liver toxicity observed during clinical trials, expressed as a percentage. [column '% BIOL' in source]; conditions: human
[7] = human; remark: listed apart in the source
[8] = Times to onset, minimal and maximal, observed in the indexed observations. [column 'DELAI' in source]; conditions: human
[9] = Proposed mechanism(s) of liver damage. [column 'MEC' in source]; conditions: human
[10] = human; remark: listed apart in the source
[11] = human; remark: listed apart in the source
[12] = human, serum
[13] = human; remark: listed apart in the source
[14] = human; remark: listed apart in the source
[15] = human; remark: listed apart in the source
[16] = Highest frequency of acute liver toxicity observed during clinical trials, expressed as a percentage. [column '% AIGUE' in source]; conditions: human
[17] = human; remark: listed apart in the source
[18] = human; remark: listed apart in the source
[19] = human, serum; remark: listed apart in the source
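For Hepatotoxicity (association with vascular disease) in this document: count of indexed literature references reporting vascular liver injury in humans, e.g. peliosis hepatitis, hepatic veno-occlusive disease or Budd-Chiari syndrome.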
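For Hepatotoxicity (benign tumour) in this document: value is a count of indexed literature references citing a benign tumour confirmed by histopathology.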
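For Hepatotoxicity (choleostasis) in this document: human cholestatic liver injury, shown by histopathology or by peak ALT or AST elevation over alkaline phosphatase ratio below 2, value counts indexed literature reports.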
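For Hepatotoxicity (chronic liver disease) in this document: chronic liver injury confirmed by histopathology or persistently raised serum aminotransferase activity beyond 6 months, value given as the count of indexed literature references.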
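For Hepatotoxicity (cirrhosis) in this document: value is a count of indexed literature references reporting cirrhosis confirmed by histopathology.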
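For Hepatotoxicity (cytolytic) in this document: human cytolytic liver injury, shown by histopathology or by a ratio above 5 of peak ALT or AST elevation to alkaline phosphatase elevation, value counts indexed references.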
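For Hepatotoxicity (granulomatous hepatitis) in this document: value is a count of indexed literature references reporting granulomatous liver disease confirmed by histopathology.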
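For Hepatotoxicity (malignant tumour) in this document: malignant tumour confirmed by histopathology, value gives the count of indexed literature references reporting it.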
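For Hepatotoxicity (severe hepatitis) in this document: human clinical data: severe hepatitis, meaning potentially life-threatening liver failure or clinically observed cases, the value counts how many indexed literature references report it.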
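For Hepatotoxicity (steatosis) in this document: steatosis confirmed by histopathology, value is the count of indexed references.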

| SMILES | Hepatotoxicity (chronic liver disease) [1] | Hepatotoxicity (cirrhosis) [2] | Hepatotoxicity (successful reintroduction) [3] | Hepatotoxicity (benign tumour) [4] | Hepatotoxicity (comment) [5] | Hepatotoxicity (moderate) [6] | Hepatotoxicity (association with vascular disease) [7] | Hepatotoxicity (time to onset) [8] | Hepatotoxicity (mechanism) [9] | Hepatotoxicity (malignant tumour) [10] | Hepatotoxicity (cytolytic) [11] | Hepatotoxicity (acute) [12] | Hepatotoxicity (choleostasis) [13] | Hepatotoxicity (granulomatous hepatitis) [14] | Hepatotoxicity (severe hepatitis) [15] | Hepatotoxicity (acute) [16] | Hepatotoxicity (steatosis) [17] | Hepatotoxicity (animal toxicity known) [18] | Hepatotoxicity (moderate) [19] | further results |
| --- | --- | --- | --- | --- | --- | --- | --- | --- | --- | --- | --- | --- | --- | --- | --- | --- | --- | --- | --- | --- |
| CCC(=O)O[C@](Cc1ccccc1)(c1ccccc1)[C@H](C)CN(C)C [PROPOXYPHENE] | 1 | 0 | yes | 0 | CHOLANGITE | 14.3% | 0 | 1 day - 1.5 years | Allergic, Dose-dependant | 0 | 7 | 21 | 20 | 0 | 0 | 0% | 0 | yes | 6 |  |
| CC(C)Nc1ncccn1 [ISAXONINE] | 0 | 0 | yes | 0 | AC_ANTI-MFR1 | 0% | 0 | 1 month - 6 months | Allergic, Reactive metabolite | 0 | 13 | 13 | 3 | 1 | 4 | 0% | 1 | yes | 0 |  |
| CNC(=C[N+](=O)[O-])NCCSCc1ccc(CN(C)C)o1 [RANITIDINE] | 1 | 0 | yes | 0 | AC_ANTI-ML/-N CHOLANGITE | 18.6% | 0 | 4 days - 3 months | Allergic, Dose-dependant, Toxic Metabolite | 0 | 12 |  | 15 | 1 | 2 | 0% | 1 | yes | 37 |  |
| CN(C)CCCN1c2ccccc2CCc2ccccc21 [IMIPRAMINE] | 1 | 0 | yes | 0 | RC/DESPRAMINE CHOLESTASE_PROLONGEE |  | 0 | 1 week - 1 year | Allergic, Reactive metabolite | 0 | 9 |  | 13 | 0 |  |  | 0 | yes |  |  |
| O=C1CN(/N=C/c2ccc([N+](=O)[O-])o2)C(=O)N1 [NITROFURANTOIN] | 37 | 7 | yes | 1 | AC_ANTI-ML/-N RC/FURAZOLIDONE/NIFUROXIME CHOLANGITE |  | 0 | 2 days - 10 years |  | 1 |  |  |  |  |  |  | 1 | yes | 2 | Hepatotoxicity (moderate) ([6]; Liver): 0%; Hepatotoxicity (mechanism) ([9]; Liver): Allergic; Hepatotoxicity (cytolytic) ([11]; Liver): 9; Hepatotoxicity (choleostasis) ([13]; Liver): 27; Hepatotoxicity (granulomatous hepatitis) ([14]; Liver): 2; Hepatotoxicity (severe hepatitis) ([15]; Liver): 8; Hepatotoxicity (acute) ([16]; Liver): 0% |
| O=C1CN(/N=C/c2ccc(-c3ccc([N+](=O)[O-])cc3)o2)C(O)=N1 [DANTROLENE] | 1 | 0 | yes | 0 | CHOLANGITE | 1.8% | 0 | 7 days - 1 year |  | 0 | 10 | 11 | 6 | 0 | 7 | 0.6% | 0 | yes | 11 |  |
| COc1cccc2c1C(=O)c1c(O)c3c(c(O)c1C2=O)C[C@@](O)(C(=O)CO)C[C@@H]3O[C@H]1C[C@H](N)[C@H](O)[C@H](C)O1 [DOXORUBICIN] | 0 | 0 | yes | 0 | I/MERCAPTOPURINE/VINBLASTINE CHOLANGITE MVO REACTIVATION_HVB | 84.6% | 5 | 1 week - 3 weeks | Reactive metabolite, Dose-dependant | 1 | 4 | 7 | 3 | 0 | 4 |  | 0 | yes | 8 |  |
| CC(=O)Nc1ccc(O)cc1 [ACETAMINOPHEN] | 7 | 5 | yes | 0 | I/ALCOOL/PHENYTOINE/PHENOBARBITAL/IFN/ZIDOVUDINE #CBP |  | 0 | 1 day - 12 years | Allergic, Toxic Metabolite | 0 | 98 |  | 5 | 1 |  |  | 1 | yes |  |  |
| CN1CCN(C2=Nc3cc(Cl)ccc3Nc3ccccc32)CC1 [CLOZAPINE] | 0 | 0 | yes | 0 | CHOLANGITE | 60% | 0 | 3 days - 6 weeks | Dose-dependant | 0 | 8 |  | 4 | 0 | 1 | 1% | 0 | A | 26 |  |

— ChEMBL document CHEMBL3137667, “[Drug-induced liver injury; fourteenth updated edition of the bibliographic database of liver injuries and related drugs]” (Gastroenterol Clin Biol, 2004)
